Assay results taken from US20090247465A1, “Novel Use of Bivalirudin in the Treatment of Acute Coronary Syndrome” (priority 2008, published 2009).

Legend:
[1] = tested on: patients with moderate and high risk NSTE-ACS; assay: ACUITY analysis: clinical outcomes at 30 days, consistent UFH/enoxaparin plus GP IIb/IIIa inhibitor vs switch to bivalirudin, and antithrombin-naïve patients; conditions: human, in vivo
Text: A total of 4215 patients received prior antithrombin therapy with either UFH or enoxaparin before randomization. Of these, 2137 were randomized to receive the same antithrombin plus a GP IIb/IIIa inhibitor (consistent), while 2078 patients were randomized to receive bivalirudin (switch). There were 2889 patients naïve to antithrombin therapy at randomization, and of these, 1462 patients were randomized to UFH/enoxaparin plus a GP IIb/IIIa inhibitor and 1427 to bivalirudin monotherapy (FIG. 1).
At 30 days, there was no difference in composite ischemia between the two groups: 6.9% for patients switched to bivalirudin vs. 7.4% for patients remaining on consistent UFH/enoxaparin ([RR 0.93; 0.75-1.16], p=0.52). […] Transfusions were also lower in the patients switched to bivalirudin vs. patients remaining on consistent UFH/enoxaparin (1.5% vs. 2.6% [RR 0.60; 0.39-0.92], p=0.02). (Table 2, FIG. 2).
Tables 3a and 3b show clinical outcomes according to type of heparin therapy (UFH or enoxaparin) in patients on prior antithrombin therapy and in patients naive to antithrombin therapy. […]

[2] = in vivo; cited from earlier work
[3] = tested on: patients with moderate and high risk NSTE-ACS; conditions: ACUITY; bivalirudin monotherapy vs UFH/enoxaparin plus a GP IIb/IIIa inhibitor; cited from earlier work

| Molecule | Major bleeding, number of patients [1] | Transfusion, number of patients [1] | doses not causing adverse effects [2] | absolute reduction in major bleeding [3] [%] | relative reduction in major bleeding [3] [%] |
| --- | --- | --- | --- | --- | --- |
| enoxaparin | 42 | 19 | – | – | – |
| CC[C@H](C)[C@H](NC(=O)[C@H](CCC(=O)O)NC(=O)[C@H](CCC(=O)O)NC(=O)[C@H](Cc1ccccc1)NC(=O)[C@H](CC(=O)O)NC(=O)CNC(=O)[C@H](CC(N)=O)NC(=O)CNC(=O)CNC(=O)CNC(=O)CNC(=O)[C@@H]1CCCN1C(=O)[C@H](CCCNC(=N)N)NC(=O)[C@@H]1CCCN1C(=O)[C@H](N)Cc1ccccc1)C(=O)N1CCC[C@H]1C(=O)N[C@@H](CCC(=O)O)C(=O)N[C@@H](CCC(=O)O)C(=O)N[C@@H](Cc1ccc(O)cc1)C(=O)N[C@@H](CC(C)C)C(=O)O [Bivalirudin, bivalirudin] | – | – | up to 7.5 mg/kg | 2.7 | 47 |
